According to patent US20240091203A1, “METHODS FOR TREATING NON-OBSTRUCTIVE HYPERTROPHIC CARDIOMYOPATHY” (Cytokinetics, Incorporated, priority 2022, published 2024):
“Also recorded” adds a separate entry of the source.

Columns and labels:
[1] = tested on: patients with symptomatic non-obstructive HCM (nHCM) or HCM with MVO; assay: Phase 2 trial (Example 2): patient-reported outcomes (KCCQ-CSS, SAQ-AF); format: in vivo, human
Source text: Health Status and Health-related Quality of Life: when available, patients completed patient-reported outcome (PRO) questionnaires prior to dosing at Day 1, at Week 6, at Week 10 and at Week 12. The following instruments were be used at these visits: by Short Form 36 physical function sub-scale (SF-36-PFS), Kansas City Cardiomyopathy Questionnaire Clinical Summary Score (KCCQ-CSS), SAQ7, PGI-C (Week 10 only), and CGI (Week 10 only).
The exploratory health status and health-related quality of life endpoints included but were not limited to change from baseline to Week 10 and a slope of change from baseline to Week 10 in: (i) T-scores for PROMIS Dyspnea Severity Short Form 10a, PROMIS Dyspnea Severity Short Form 10a with two additional items, PROMIS Fatigue Short Form 7a, and PROMIS Physical Function Short Form 8b; (ii) Norm-based T scores for SF-36 Physical Functioning subscale; (iii) Individual responses to the HCM Global Impression of Status questionnaire at baseline, Week 6, and Week 10; (iv) Individual responses to the HCM Global Impression of Change questionnaire at Week 6 and Week 10; (v) Change in KCCQ score from baseline to Week 10; and (vi) Change in SAQ7 score from baseline to Week 10.

[2] = Phase 1 plasma pharmacokinetics, food-effect cohort; format: in vivo, human; settings: 10 mg; for AUCinf / AUC24 / Cmax: geometric mean; for CL/F / t1/2: mean ± SD
Procedure: Food-effect cohort. […] Participants were randomized in a 1:1 ratio to 1 of 2 sequences: fasted/fed or fed/fasted.
Pharmacokinetic analyses. For all study groups, blood samples for PK assessment were obtained pre-dose, up to 12 times daily on day 1, and then at regular intervals throughout the study. Blood samples were collected according to the following schedule: SAD Cohorts: Day 1: pre-dose and 0.25, 0.5, 1, 1.5, 2, 2.5, 3, 4, 6, 8, 12, 16, 24, 36, 48, 72, 96, and 216 h post dose. […] CYPD6-PM Cohort: Day 1: pre-dose and 0.25, 0.5, 1, 1.5, 2, 2.5, 3, 4, 6, 8, 12, 16, 24, 36, 48, 72, 96, 216, 312, and 552 h post dose. Food-Effect Cohort: Day 1: pre-dose and 0.25, 0.5, 1, 1.5, 2, 2.5, 3, 4, 6, 8, 12, 16, 24, 36, 48, 72, 96, 144, and 216 h post dose. Standard non-compartmental methods were used to calculate PK parameters using Phoenix® WinNonlin® Version 7.0; actual sample collection times were utilized.

[3] = tested on: patients with symptomatic non-obstructive HCM (nHCM) or HCM with MVO; assay: Phase 2 trial (Example 2): cardiac biomarkers NT-proBNP and hs-cTnI; format: in vivo, human
Procedure: Echocardiograms obtained on day 1 of treatment, at weeks 2, 4, 6, and 10 of treatment, and two weeks after the last dose were analyzed for several key structural and physiologic metrics; measurements of N-terminal prohormone of brain natriuretic peptide (NT-proBNP), and cardiac troponin I were also monitored. Ambulatory cardiac monitoring was conducted one week before day 1 of treatment and at week 9.
The exploratory PD endpoints included but were not limited to: (i) The relationship of plasma concentration ranges of CK-3773274 to LVEF, LVFS, global longitudinal strain (GLS); (ii) Observed values and change from baseline in the echocardiography parameters described in Table 13 and evaluated by the core laboratory during treatment at Weeks 2, 4, 6, 10, and 12; (iii) Change in NT-proBNP from baseline to Week 10; (iv) Change in hs-cTnI from baseline to Week 10; (v) Proportion of patients with LVEF ≥50% and ≥50% reduction from baseline NT-proBNP.
For select PD measurements with statistical distributions likely to depart from normal, proportional change from baseline was evaluated.

[4] = tested on: patients with symptomatic non-obstructive HCM (nHCM) or HCM with MVO; assay: Phase 2 trial (Example 2): safety and tolerability; settings: for Patients with fatal TEAEs: not related
Source text: The study excluded patients receiving disopyramide. […] Overall, the treatment duration was 10 weeks with a 4-week follow-up period after the last dose.
Patients were eligible to be included in the study only if all the following criteria apply: 1. Able to comprehend and willing to sign an informed consent form (ICF) and willing to comply with all study procedures and restrictions for the duration; 2. Males and females between 18 and 85 years of age at screening; 3. Body weight is ≥45 kg at screening; 4. Diagnosed with HCM per the following criteria: (a) has LV hypertrophy and non-dilated LV chamber in the absence of other cardiac disease; and (b) has minimal wall thickness ≥15 mm (minimal wall thickness ≥13 mm is acceptable with a positive family history of HCM or with a known disease-causing gene mutation); 5. Adequate acoustic windows for echocardiography; 7. Left ventricular ejection fraction (LVEF) ≥60% at screening; 8. New York Heart Association (NYHA) Class II or III at screening; 9. Patients on beta-blockers, verapamil, diltiazem, or ranolazine should have been on stable doses for ≥4 weeks and anticipate remaining on the same medication regimen during the study; 10. […] Able to complete all screening procedures.
Patients were excluded from the study if any of the following criteria applied: 1. Aortic stenosis or fixed subaortic obstruction; 2. Known infiltrative or storage disorder causing cardiac hypertrophy that mimics HCM (e.g., Noonan syndrome, Fabry disease, amyloidosis); 3. […] Documented history of current obstructive coronary artery disease (>70% stenosis in one or more epicardial coronary arteries) or documented history of myocardial infarction; 6. […] Has any ECG abnormality considered by the investigator to pose a risk to patient safety (e.g., second degree atrioventricular block type II); 9. Paroxysmal atrial fibrillation or flutter documented during the screening period; 10. […] Currently participating in another investigational device or drug study or received an investigational device or drug <1 month (or 5 half-lives for drugs, whichever is longer) prior to screening; 20.
Each patient received Dose 1 once daily for 2 weeks. […] Otherwise, the patient remained on Dose 1. If LVEF was <50% at Week 2, treatment was discontinued.
Otherwise, the patient remained on the same dose. If LVEF was <50% at Week 4, the patient returned to a prior dose level or treatment was discontinued if the patient was on Dose 1.
If LVEF was <50% at Week 6, the patient was down-titrated to a prior dose level or discontinued if the patient was on Dose 1.
Primary safety endpoints were: (i) patient incidence of reported AEs from first dose up to safety follow-up; (ii) patient incidence of reported SAEs from first dose up to safety follow-up; (iii) patient incidence of LVEF <50% from first dose up to safety follow-up.
Safety follow-up was defined as 4 weeks following the last dose.

[5] = tested on: patients with symptomatic non-obstructive HCM (nHCM) or HCM with MVO; assay: Phase 2 trial (Example 2): NYHA Functional Classification; format: in vivo, human
Source text: Other exploratory endpoints included: (i) Change in NYHA Functional Classification from baseline to Week 10; and (ii) For patients with baseline NYHA Class III disease, percentage with improvement to NYHA Class I or II disease at Week 10.

[6] = food-effect cohort, Fasted, n = 4
[7] = food-effect cohort, Fasted, n = 10
[8] = food-effect cohort, Fed, n = 12
[9] = end of treatment (week 10), second interim
[10] = number of patients, N = 41, interim

CCc1nc(-c2ccc3c(c2)CC[C@H]3NC(=O)c2cnn(C)c2)no1 [aficamten, (R)—N-(5-(5-ethyl-1,2,4-oxadiazol-3-yl)-2,3-dihydro-1H-inden-1-yl)-1-methyl-1H-pyrazole-4-carboxamide]
patients improving KCCQ-CSS by ≥5 points ([1]; 21 patients, week 10, interim): 54%
improvement in KCCQ-CSS, median (IQR) ([1]; from baseline median (IQR) 69.8 (56.8, 83.9), interim): 7.3 (−1.0, 18.8) points
patients with clinical reduction in symptom burden (KCCQ-CSS) ([1]; week 10, second interim): 58%
improvement in mean KCCQ-CSS ([1]; week 10, second interim, p<0.0001): 10.6 points
effect of food on pharmacokinetics ([2]; fed (high-fat breakfast) versus fasted): Neither food nor CYP2D6-PM phenotype had a clinically meaningful impact; also recorded: little effect on AUC; also recorded: no significant effect of food
increase in Cmax when taken with food ([2]; fed versus fasted): approximately 30%
AUCinf [2, 6]: 3674 ng·h/mL
AUC24 [2, 7]: 601 (33) ng · h/ml
Cmax [2, 7]: 50.6 ng/mL
CL/F [2, 6]: 2.8 ± 0.6 L/h
t1/2 [2, 6]: 84.4 ± 16.4 h
Tmax ([2]; food-effect cohort, Fasted, median, n = 10): 2.3 h
AUCinf ([2]; food-effect cohort, Fed, n = 7): 3413 ng·h/mL
AUC24 [2, 8]: 631 (25) ng · h/ml
Cmax [2, 8]: 65.0 ng/mL
CL/F ([2]; food-effect cohort, Fed, n = 7): 3.1 ± 0.9 L/h
t1/2 ([2]; food-effect cohort, Fed, n = 7): 78.0 ± 8.1 h
symptoms, NT-proBNP and hs-Troponin I in patients with mid-ventricular obstruction (MVO) ([3]; 7 patients with MVO, second interim): All patients in this subgroup showed symptom improvement and reduction in both NT-proBNP and hs-Troponin I levels
cardiac biomarkers (NT-proBNP, hs-cTnI) after washout ([3]; after the 2-week washout): rebounded upwards off drug
reduction of NT-proBNP (geometric mean, proportional change from baseline) ([3]; end of treatment (week 10), interim, p<0.0001): 56%
reduction of hs-cTnI (proportional to baseline) ([3]; end of treatment (week 10), interim, p<0.05): 21%
mean (SE) reduction of NT-proBNP [3, 9]: -870 pg/mL
mean (SE) reduction of hs-cTnI [3, 9]: -24.8 ng/L
reduction of NT-proBNP ([3]; end of treatment (week 10), second interim, p<0.0001): 55%
reduction of hs-cTnI ([3]; end of treatment (week 10), second interim, p<0.05): 21%
patients who experienced SAEs ([4]; 4 of 41 patients including one death, second interim): 9.8%
overall tolerability ([4]; 10 weeks, nHCM patients): well-tolerated overall
patients with LVEF <50% ([4]; Week 10 (EOT), 3 of 41 patients): 7.3%
recovery of LVEF in patients with LVEF <50% ([4]; by Week 12 (2 weeks' washout)): All 3 patients returned to baseline LVEF; also recorded: All LVEF returned to normal
AEs of heart failure ([4]; interim): No AEs of heart failure
drug discontinuations due to AE ([4]; interim): no drug discontinuations
relatedness of SAEs (bronchitis, new onset atrial fibrillation, cardiac arrest) per Investigator ([4]; interim): None of these were deemed related to aficamten
Patients reporting at least one TEAE [4, 10]: 27
Patients with AEs related to study drug (per Investigator) [4, 10]: 4
Patients with Moderate TEAEs [4, 10]: 14
Patients with Severe TEAEs [4, 10]: 3
Patients with fatal TEAEs [4, 10]: 1
Patients with AEs related to study drug (per Investigator) ([4]; percent of N = 41, interim): (9.8) %
Patients with Moderate TEAEs ([4]; percent of N = 41, interim): (34) %
Patients with Severe TEAEs ([4]; percent of N = 41, interim): (7.3) %
Patients with TESAEs ([4]; percent of N = 41, interim): (7.3) %
Patients with fatal TEAEs ([4]; percent of N = 41, interim): (2.4) not related %
attribution of SAEs ([4]; second interim): None of the SAEs were attributed to aficamten
events with LVEF <40% ([4]; second interim): no events with LVEF <40%; also recorded: No LVEF <40% occurred
treatment interruptions or down-titration events related to LVEF <50% ([4]; second interim): no treatment interruptions or down-titration events
patients with dose reduction to 10 mg for AE fatigue ([4]; week 9, interim): One patient
LVEF <50% during the titration period ([4]; weeks 0-6, interim): no LVEF were less than 50%
patients with a change of ≥1 NYHA Class ([5]; 22 of 41 patients, interim): 54%
patients with functional improvement of ≥1 NYHA class ([5]; Week 10, second interim, p=0.011 vs assumed 37% placebo effect): 56%
patients achieving NYHA Class 1 (asymptomatic) ([5]; by Week 10, second interim): 28%
patients who improved from NYHA Class II to I ([5]; interim): 8 patients
patients who improved from NYHA Class III to I ([5]; interim): 4 patients
patients who improved from NYHA Class III to II ([5]; interim): 12 patients
